How the values were obtained:
[1] = system: summer wheat crop plant (TRZAS; cv. Triso); assay: Reduction in herbicide damage to summer wheat by safener, greenhouse post-emergence application, visual scoring; assay type: in vivo; parameters: key to Reduction in the damage by safener (difference): difference in % visual damage (0-100% scale vs untreated) due to safener
Procedure: (§1) The seeds of the crop plants to be treated are laid out in soil in woodfiber pots (diameter ˜ 7 cm), covered with soil and grown in a greenhouse under good conditions for germination and growth. The trial plants were treated at the early leaf stage (BBCH10-BBCH12).
The herbicides used (component B) were used in the following formulations: • B2.81: WP • B2.85: WP • B2.92: WP • Cinmethylin: EC • Clomazone: WP • Ethofumesate: WP • Flufenacet: SC • Pinoxaden: WP • Saflufenacil: WP • Bicyclopyrone: WP • Picloram: WP • Metazachlor: SC • Flumioxazin: WP • Glyphosate potassium salt: SL • Topramezone: WP
(§2) The dose of the respective herbicides was chosen here such that it causes an average degree of visually apparent damage (min. 20%, max. 75%) compared to untreated crop plants at the evaluation time on a control group of crop plants without safener treatment that were included in the same trial.
(§3) In the respective herbicide/safener combinations, the safeners (component A) in the form of wettable powders (WP) were added in the dose specified; in these cases, herbicide and safener are thus applied as a mixture.
(§4) Application was effected in each case on to the above-ground parts of the plant, at a water application rate corresponding to 300 l/ha and with addition of wetting agent (Mero, 1.5 l/h a).
In the applications that contained pinoxaden, bicyclopyrone or topramezone, the herbicidal effect was enhanced by additionally adding ammonium sulfate (2 kg/ha).
(§5) After application, the plants were cultivated under good growth conditions in a greenhouse. On account of the different mechanisms of action of the herbicides used, the damaging effect of the herbicides was fully manifested at different times depending on the herbicide, and this in turn forms the basis for assessment of the safener action in the mixtures. Therefore, the damage was scored visually, depending on the herbicide/mixture, between 11 and 21 days after application.
(§6) The damage effect was assessed visually on a scale of 0-100% by comparison with untreated control plants, and averaged over 2 repeats per treatment.

[2] = system: summer barley crop plant (HORVS: cv. Quench); assay: Reduction in herbicide damage to summer barley by safener, greenhouse post-emergence application, visual scoring; assay type: in vivo; parameters: key to Reduction in the damage by safener (difference): difference in % visual damage, 0-100% scale vs untreated plants
Procedure: as §1
The herbicides used (component B) were used in the following formulations: • B2.81: WP • B2.85: WP • B2.92: WP • Clomazone: WP • Ethofumesate: WP • Flufenacet: SC • Fluroxypyr: EC • Saflufenacil: WP • Thiencarbazone-methyl: WP • Iodosulfuron-methyl-sodium: WP • Bifenox: WP • Glyphosate potassium salt: SL • Topramezone: WP
as §2, §3, §4
In the applications that contained pinoxaden or topramezone, the herbicidal effect was enhanced by additionally adding ammonium sulfate (2 kg/ha).
as §5, §6

[3] = summer wheat (TRZAS), herbicide B1.8 (pinoxaden) 200 g a.i./ha + safener 100 g a.i./ha
[4] = summer wheat (TRZAS), herbicide B2.81 15 g a.i./ha + safener 100 g a.i./ha
[5] = summer wheat (TRZAS), herbicide B2.85 5 g a.i./ha + safener 100 g a.i./ha
[6] = summer wheat (TRZAS), herbicide B2.92 5 g a.i./ha + safener 100 g a.i./ha
[7] = summer wheat (TRZAS), herbicide B5.14 (clomazone) 200 g a.i./ha + safener 100 g a.i./ha
[8] = summer wheat (TRZAS), herbicide B5.21 (ethofumesate) 2000 g a.i./ha + safener 100 g a.i./ha
[9] = summer wheat (TRZAS), herbicide B9.10 (saflufenacil) 10 g a.i./ha + safener 100 g a.i./ha
[10] = summer wheat (TRZAS), herbicide B9.10 (saflufenacil) 20 g a.i./ha + safener 100 g a.i./ha
[11] = summer barley (HORVS), herbicide B2.68 (thiencarbazone-methyl) 30 g a.i./ha + safener 100 g a.i./ha
[12] = summer barley (HORVS), herbicide B2.81 15 g a.i./ha + safener 100 g a.i./ha
[13] = summer barley (HORVS), herbicide B2.85 5 g a.i./ha + safener 100 g a.i./ha
[14] = summer barley (HORVS), herbicide B2.92 5 g a.i./ha + safener 100 g a.i./ha
[15] = summer barley (HORVS), herbicide B5.14 (clomazone) 200 g a.i./ha + safener 100 g a.i./ha
[16] = summer barley (HORVS), herbicide B5.21 (ethofumesate) 2000 g a.i./ha + safener 100 g a.i./ha
[17] = summer barley (HORVS), herbicide B6.4 (fluroxypyr) 500 g a.i./ha + safener 100 g a.i./ha
[18] = summer barley (HORVS), herbicide B9.10 (saflufenacil) 20 g a.i./ha + safener 100 g a.i./ha
[19] = summer wheat (TRZAS), herbicide dose 400 g a.i./ha, without safener

Cc1ccccc1CO[C@@H]1C[C@@]2(C(C)C)CC[C@]1(C)O2 (racemic) [Compound B5.13, cinmethylin, reference compound]
Damage to the plant by the herbicide (in %) ([1]; summer wheat (TRZAS), herbicide dose 500 g a.i./ha, without safener): 25%
Damage to the plant by the herbicide (in %) ([1]; summer wheat (TRZAS), herbicide dose 1000 g a.i./ha, without safener): 25%

C=C[C@]1(C(=O)N[C@H]2CO[C@@H](C(=O)OC)C2)CC(c2cc(F)cc(F)c2)=NO1 (relative stereo) [Compound B2.81, methyl (2R*,4R*)-4-[[(5S)-3-(3,5-difluorophenyl)-5-vinyl-4H-isoxazole-5-carbonyl]amino]tetrahydrofuran-2-carboxylate]
Damage to the plant by the herbicide (in %) ([1]; in vivo): 70%
Damage to the plant by the herbicide (in %) ([2]; in vivo): 70%

COC(=O)COc1nc(-c2ccc(Cl)cc2F)n(-c2ccc(Cl)cc2F)n1 [Compound A1, methyl {[1,5-bis(4-chloro-2-fluorophenyl)-1H-1,2,4-triazol-3-yl]oxy}acetate]
Reduction in the damage by safener (difference) [1, 3]: 25
Reduction in the damage by safener (in %) [1, 3]: 71%
Reduction in the damage by safener (difference) [1, 4]: 70
Reduction in the damage by safener (in %) [1, 4]: 100%
Reduction in the damage by safener (difference) [1, 5]: 60
Reduction in the damage by safener (in %) [1, 5]: 100%
Reduction in the damage by safener (difference) [1, 6]: 60
Reduction in the damage by safener (in %) [1, 6]: 100%
Reduction in the damage by safener (difference) [1, 7]: 20
Reduction in the damage by safener (in %) [1, 7]: 50%
Reduction in the damage by safener (difference) [1, 8]: 70
Reduction in the damage by safener (in %) [1, 8]: 100%
Reduction in the damage by safener (difference) [1, 9]: 15
Reduction in the damage by safener (in %) [1, 9]: 43%
Reduction in the damage by safener (difference) [1, 10]: 15
Reduction in the damage by safener (in %) [1, 10]: 38%
Reduction in the damage by safener (difference) [2, 11]: 30
Reduction in the damage by safener (in %) [2, 11]: 100%
Reduction in the damage by safener (difference) [2, 12]: 70
Reduction in the damage by safener (in %) [2, 12]: 100%
Reduction in the damage by safener (difference) [2, 13]: 50
Reduction in the damage by safener (in %) [2, 13]: 83%
Reduction in the damage by safener (difference) [2, 14]: 65
Reduction in the damage by safener (in %) [2, 14]: 100%
Reduction in the damage by safener (difference) [2, 15]: 30
Reduction in the damage by safener (in %) [2, 15]: 75%
Reduction in the damage by safener (difference) [2, 16]: 60
Reduction in the damage by safener (in %) [2, 16]: 100%
Reduction in the damage by safener (difference) [2, 17]: 20
Reduction in the damage by safener (in %) [2, 17]: 100%
Reduction in the damage by safener (difference) [2, 18]: 20
Reduction in the damage by safener (in %) [2, 18]: 50%

CCc1cc(C)cc(CC)c1-c1c(OC(=O)C(C)(C)C)n2n(c1=O)CCOCC2 [Compound B1.8, pinoxaden, reference compound]
Damage to the plant by the herbicide (in %) ([1]; summer wheat (TRZAS), herbicide dose 200 g a.i./ha, without safener): 35%

COc1nc(C)nc(NC(=O)NS(=O)(=O)c2cc(I)ccc2C(=O)O)n1 [Compound B2.34, iodosulfuron, reference compound]
Damage to the plant by the herbicide (in %) ([2]; in vivo): 45%

Cc1cccc(C)c1N(Cn1cccn1)C(=O)CCl [Compound B2.38, metazachlor, reference compound]
Damage to the plant by the herbicide (in %) ([1]; summer wheat (TRZAS), herbicide dose 4000 g a.i./ha, without safener): 40%

COc1nn(C(=O)NS(=O)(=O)c2c(C(=O)O)csc2C)c(=O)n1C [Compound B2.68, thiencarbazone, reference compound]
Damage to the plant by the herbicide (in %) ([2]; summer barley (HORVS), herbicide dose 30 g a.i./ha, without safener): 30%

C#CCN1C(=O)COc2cc(F)c(N3C(=O)C4=C(CCCC4)C3=O)cc21 [Compound B5.26, flumioxazin, reference compound]
Damage to the plant by the herbicide (in %) ([1]; summer wheat (TRZAS), herbicide dose 20 g a.i./ha, without safener): 60%

Nc1c(Cl)c(F)nc(OCC(=O)O)c1Cl [Compound B6.4, fluroxypyr, reference compound]
Damage to the plant by the herbicide (in %) ([2]; in vivo): 20%

Nc1c(Cl)c(Cl)nc(C(=O)O)c1Cl [Compound B6.5, picloram, reference compound]
Damage to the plant by the herbicide (in %) [1, 19]: 25%

COC(=O)c1cc(Oc2ccc(Cl)cc2Cl)ccc1[N+](=O)[O-] [Compound B8.6, bifenox, reference compound]
Damage to the plant by the herbicide (in %) ([2]; summer barley (HORVS), herbicide dose 600 g a.i./ha, without safener): 40%

bicyclopyrone [Compound B1.2, reference compound]
Damage to the plant by the herbicide (in %) [1, 19]: 60%
